Reference: ChEMBL document CHEMBL3351426, “Development of new estradiol-cationic lipid hybrids: ten-carbon twin chain cationic lipid is a more suitable partner for estradiol to elicit better anticancer activity” (Eur J Med Chem, 2014)
The source made the active and inactive calls. The rule behind the calls is not given here.

How the values were obtained:
[1] = tested on: MDA-MB-231; assay: Antiproliferative activity human ER-negative MDA-MB-231 cells after 2 days by MTT assay; format: functional, cell-based; settings: MDA-MB-231, 48 h
[2] = tested on: MCF7; assay: Antiproliferative activity human ER-positive MCF7 cells after 2 days by MTT assay; format: functional, cell-based; settings: MCF7, 48 h
[3] = Antiproliferative activity mouse B16F10 cells after 2 days by MTT assay; format: functional, cell-based; settings: B16-F10, 48 h
[4] = Antiproliferative activity mouse NIH/3T3 cells after 2 days by MTT assay; format: cell-based; settings: NIH3T3, 48 h
[5] = Antiproliferative activity human MIAPaCa2 cells after 2 days by MTT assay; format: functional, cell-based; settings: MIA PaCa-2, 48 h
[6] = tested on: CHO; assay: Antiproliferative activity against CHO cells after 2 days by MTT assay; format: cell-based; settings: Cricetulus griseus, 48 h
[7] = tested on: MCF7; assay: Induction of apoptosis in human ER-positive MCF7 cells assessed as late apoptotic cells at 5 uM after 24 hrs by FITC-annexin V/PI staining based flow cytometry (RVB = 3.68%); format: functional
[8] = Induction of apoptosis in mouse RAW264.7 cells assessed as viable cells at 5 uM after 24 hrs by FITC-annexin V/PI staining based flow cytometry (RVB = 98.51%); format: cell-based; settings: read-out: Activity
[9] = Cell cycle arrest in mouse B16F10 cells assessed as reduction in accumulation at G0-G1 phase 5 to 10 uM after 24 hrs by PI staining based flow cytometry; format: functional; settings: B16-F10
[10] = tested on: MDA-MB-231; assay: Induction of apoptosis in human ER-negative MDA-MB-231 cells assessed as early apoptotic cells at 5 uM after 24 hrs by FITC-annexin V/PI staining based flow cytometry (RVB = 1.15%); format: functional
[11] = tested on: B16-F10; assay: Induction of apoptosis in mouse B16F10 cells assessed as early apoptotic cells at 5 uM after 24 hrs by FITC-annexin V/PI staining based flow cytometry (RVB = 0.36%); format: functional
[12] = tested on: RAW264.7; assay: Induction of apoptosis in mouse RAW264.7 cells assessed as early apoptotic cells at 5 uM after 24 hrs by FITC-annexin V/PI staining based flow cytometry (RVB = 0.69%); format: cell-based; settings: raw264.7, 24 h
[13] = tested on: B16-F10; assay: Induction of apoptosis in mouse B16F10 cells assessed as late apoptotic cells at 5 uM after 24 hrs by FITC-annexin V/PI staining based flow cytometry (RVB = 4.94%); format: functional
[14] = tested on: B16-F10; assay: Antitumor activity against mouse B16F10 cells expressing ER inoculated in C57BL6J mouse assessed as tumor regression at 10 mg/kg, ip for 9 days; format: functional, organism-based; parameters: dose 10 mg/kg
[15] = tested on: B16-F10; assay: Antitumor activity against mouse B16F10 cells expressing ER inoculated in C57BL6J mouse assessed as tumor regression at 10 mg/kg, ip for 9 days in presence of estradiol; format: functional, organism-based; parameters: dose 10 mg/kg
[16] = tested on: B16-F10; assay: Antitumor activity against mouse B16F10 cells inoculated in C57BL6J mouse assessed as tumor regression at 10 mg/kg, ip for 9 days; format: functional, organism-based; parameters: dose 10 mg/kg
[17] = tested on: CHO; assay: Induction of apoptosis in CHO cells assessed as late apoptotic cells at 5 uM after 24 hrs by FITC-annexin V/PI staining based flow cytometry (RVB = 0.00%); format: cell-based, Cricetulus griseus; settings: chinese hamster
[18] = tested on: MCF7; assay: Induction of apoptosis in human ER-positive MCF7 cells assessed as viable cells at 5 uM after 24 hrs by FITC-annexin V/PI staining based flow cytometry (RVB = 92.22%); format: functional; settings: MCF7, 24 h, read-out: Activity
[19] = tested on: MDA-MB-231; assay: Induction of apoptosis in human ER-negative MDA-MB-231 cells assessed as necrotic cells at 5 uM after 24 hrs by FITC-annexin V/PI staining based flow cytometry (RVB = 2.21%); format: functional
[20] = tested on: RAW264.7; assay: Induction of apoptosis in mouse RAW264.7 cells assessed as necrotic cells at 5 uM after 24 hrs by FITC-annexin V/PI staining based flow cytometry (RVB = 0.29%); format: cell-based; settings: raw264.7, 24 h
[21] = tested on: MDA-MB-231; assay: Induction of apoptosis in human ER-negative MDA-MB-231 cells assessed as viable cells at 5 uM after 24 hrs by FITC-annexin V/PI staining based flow cytometry (RVB =95.66%); format: functional; settings: MDA-MB-231, 24 h, read-out: Activity
[22] = tested on: MCF7; assay: Cell cycle arrest in human ER-positive MCF7 cells assessed as accumulation at sub-G0 phase at 5 to 10 uM after 24 hrs by PI staining based flow cytometry; format: functional
[23] = tested on: B16-F10; assay: Induction of apoptosis in mouse B16F10 cells assessed as viable cells at 5 uM after 24 hrs by FITC-annexin V/PI staining based flow cytometry (RVB = 89.58%); format: functional; settings: B16-F10, 24 h, read-out: Activity
[24] = Induction of apoptosis in CHO cells assessed as viable cells at 5 uM after 24 hrs by FITC-annexin V/PI staining based flow cytometry (RVB = 99.21%); format: cell-based, Cricetulus griseus; settings: chinese hamster, read-out: Activity
[25] = tested on: CHO; assay: Induction of apoptosis in CHO cells assessed as necrotic cells at 5 uM after 24 hrs by FITC-annexin V/PI staining based flow cytometry (RVB = 0.79%); format: cell-based, Cricetulus griseus; settings: chinese hamster
[26] = tested on: RAW264.7; assay: Induction of apoptosis in mouse RAW264.7 cells assessed as late apoptotic cells at 5 uM after 24 hrs by FITC-annexin V/PI staining based flow cytometry (RVB = 0.51%); format: cell-based; settings: raw264.7, 24 h
[27] = tested on: B16-F10; assay: Induction of apoptosis in mouse B16F10 cells assessed as necrotic cells at 5 uM after 24 hrs by FITC-annexin V/PI staining based flow cytometry (RVB = 5.12%); format: functional
[28] = tested on: CHO; assay: Induction of apoptosis in CHO cells assessed as early apoptotic cells at 5 uM after 24 hrs by FITC-annexin V/PI staining based flow cytometry (RVB = 0.00%); format: cell-based, Cricetulus griseus; settings: chinese hamster
[29] = tested on: MCF7; assay: Cell cycle arrest in human ER-positive MCF7 cells assessed as reduction in accumulation at G0-G1 phase 5 to 10 uM after 24 hrs by PI staining based flow cytometry; format: functional
[30] = tested on: MDA-MB-231; assay: Induction of apoptosis in human ER-negative MDA-MB-231 cells assessed as late apoptotic cells at 5 uM after 24 hrs by FITC-annexin V/PI staining based flow cytometry (RVB = 0.99%); format: functional
[31] = tested on: MCF7; assay: Induction of apoptosis in human ER-positive MCF7 cells assessed as early apoptotic cells at 5 uM after 24 hrs by FITC-annexin V/PI staining based flow cytometry (RVB = 0.86%); format: functional
[32] = Cell cycle arrest in mouse B16F10 cells assessed as accumulation at sub-G0 phase at 5 to 10 uM after 24 hrs by PI staining based flow cytometry; format: functional; settings: B16-F10
[33] = tested on: MCF7; assay: Induction of apoptosis in human ER-positive MCF7 cells assessed as necrotic cells at 5 uM after 24 hrs by FITC-annexin V/PI staining based flow cytometry (RVB = 3.24%); format: functional
[34] = tested on: B16-F10; assay: Antitumor activity against mouse B16F10 cells inoculated in C57BL6J mouse assessed as tumor regression at 9.15 mg/kg, ip for 9 days; format: functional, organism-based; parameters: dose 9.15 mg/kg

Question: For `CCCCCCCCCCCC[N+](C)(CCCCCCCCCCCC)CCC[C@]1(O)CC[C@H]2[C@@H]3CCc4cc(O)ccc4[C@H]3CC[C@@]21C`, which IC50 [1] is on record?
Answer: The IC50 was 6.02 µM.

Question: And the IC50 [2]?
Answer: Its IC50 is 6.23 µM.

Question: And the IC50 [3]?
Answer: The IC50 was 5.79 µM.

Question: What about the IC50 [4] of the same molecule?
Answer: The IC50 was 85.4 µM.

Question: And the IC50 [5]?
Answer: The IC50 was 7.36 µM.

Question: And the IC50 [6]?
Answer: The IC50 was 90.8 µM.

Question: Which results are given for `CC/C(=C(\c1ccccc1)c1ccc(OCCN(C)C)cc1)c1ccccc1` [TAMOXIFEN]?
Answer: IC50 [1]: 39 µM; IC50 [2]: 4.67 µM; IC50 [3]: 64.9 µM; IC50 [4]: > 100 µM; IC50 [5]: 33.1 µM; IC50 [6]: > 100 µM

Question: Which results are given for `CCCCCC[N+](C)(CCCCCC)CCC[C@]1(O)CC[C@H]2[C@@H]3CCc4cc(O)ccc4[C@H]3CC[C@@]21C`?
Answer: IC50 [1]: 6.78 µM; IC50 [2]: 7.85 µM; IC50 [3]: 6.56 µM; IC50 [4]: 45.8 µM; IC50 [5]: 8.51 µM; IC50 [6]: 60.4 µM

Question: For `C[C@]12CC[C@@H]3c4ccc(O)cc4CC[C@H]3[C@@H]1CC[C@@H]2O` [ESTRADIOL], which IC50 [1] is on record?
Answer: The IC50 was 33.5 µM.

Question: And the IC50 [2]?
Answer: The IC50 was 27.4 µM.

Question: What about the IC50 [3] of the same molecule?
Answer: Its IC50 is 39.8 µM.

Question: And the IC50 [4]?
Answer: Its IC50 is > 100 µM.

Question: And the IC50 [5]?
Answer: Its IC50 is 42.9 µM.

Question: What about the IC50 [6] of the same molecule?
Answer: The IC50 was > 100 µM.

Question: For `CCCCCCCCCC[N+](C)(CCCCCCCCCC)CCC[C@]1(O)CC[C@H]2[C@@H]3CCc4cc(O)ccc4[C@H]3CC[C@@]21C.[Cl-]`, which Activity [7] is on record?
Answer: The Activity was 45.94%.

Question: And the viability at 24 h, 5 µM [8]?
Answer: Its viability at 24 h, 5 µM is 99.1%.

Question: What about the Activity [9] of the same molecule?
Answer: Its Activity is “Active”.

Question: And the Activity [10]?
Answer: Its Activity is 21.65%.

Question: And the IC50 [1]?
Answer: Its IC50 is 1.14 µM.

Question: What about the Activity [11] of the same molecule?
Answer: The Activity was 2.53%.

Question: And the IC50 [2]?
Answer: The IC50 was 1.36 µM.

Question: And the Activity [12]?
Answer: Its Activity is 0.55%.

Question: What about the Activity [13] of the same molecule?
Answer: The Activity was 67.86%.

Question: And the inhibition [14]?
Answer: Its inhibition is “Active”.

Question: What about the IC50 [3] of the same molecule?
Answer: The IC50 was 0.5 µM.

Question: And the inhibition [15]?
Answer: Its inhibition is “inactive”.

Question: What about the inhibition [16] of the same molecule?
Answer: Its inhibition is “Active”.

Question: What about the Activity [17] of the same molecule?
Answer: Its Activity is 0.23%.

Question: What about the viability at 5 µM [18] of the same molecule?
Answer: Its viability at 5 µM is 51%.

Question: And the IC50 [4]?
Answer: Its IC50 is 47.7 µM.

Question: And the Activity [19]?
Answer: The Activity was 3.39%.

Question: What about the Activity [20] of the same molecule?
Answer: The Activity was 0.1%.

Question: And the viability at 5 µM [21]?
Answer: Its viability at 5 µM is 24.3%.

Question: What about the Activity [22] of the same molecule?
Answer: The Activity was “Active”.

Question: And the IC50 [5]?
Answer: The IC50 was 0.46 µM.

Question: And the viability at 5 µM [23]?
Answer: The viability at 5 µM was 26.7%.

Question: What about the viability at 24 h, 5 µM [24] of the same molecule?
Answer: The viability at 24 h, 5 µM was 98.3%.

Question: What about the Activity [25] of the same molecule?
Answer: The Activity was 0.86%.

Question: And the Activity [26]?
Answer: Its Activity is 0.27%.

Question: And the Activity [27]?
Answer: Its Activity is 2.87%.

Question: And the IC50 [6]?
Answer: The IC50 was 81.7 µM.

Question: And the Activity [28]?
Answer: Its Activity is 0.56%.

Question: And the Activity [29]?
Answer: Its Activity is “Active”.

Question: What about the Activity [30] of the same molecule?
Answer: Its Activity is 50.63%.

Question: What about the Activity [31] of the same molecule?
Answer: The Activity was 1.62%.

Question: And the Activity [32]?
Answer: Its Activity is “Active”.

Question: What about the Activity [33] of the same molecule?
Answer: Its Activity is 1.4%.

Question: Which IC50 [1] does the source give for `CCCCCCCCCCCCCC[N+](C)(CCCCCCCCCCCCCC)CCC[C@]1(O)CC[C@H]2[C@@H]3CCc4cc(O)ccc4[C@H]3CC[C@@]21C` here?
Answer: The IC50 was 38.7 µM.

Question: And the IC50 [2]?
Answer: The IC50 was 17.4 µM.

Question: What about the IC50 [3] of the same molecule?
Answer: Its IC50 is 32.3 µM.

Question: What about the IC50 [4] of the same molecule?
Answer: Its IC50 is 80.3 µM.

Question: And the IC50 [5]?
Answer: The IC50 was 42.5 µM.

Question: And the IC50 [6]?
Answer: Its IC50 is > 100 µM.

Question: What does the source list for `CCCCCCCC[N+](C)(CCCCCCCC)CCC[C@]1(O)CC[C@H]2[C@@H]3CCc4cc(O)ccc4[C@H]3CC[C@@]21C`?
Answer: IC50 [1]: 5.62 µM; IC50 [2]: 5.34 µM; IC50 [3]: 6.48 µM; IC50 [4]: 51 µM; IC50 [5]: 6.83 µM; inhibition [34]: Active; IC50 [6]: 45.3 µM
